According to patent publication US7736624B2, “Methods and compositions for diagnostic and therapeutic targeting of COX-2” (priority 2006, dated 2010):
Read-outs that look alike come from different tables or passages of the source. Each block holds one compound with its values, some of them ahead of it.

Columns and labels:
ovine COX-1 = target: T1, ovine COX-1 (Ovis aries, UniProt P05979); experiment: IC50 determinations using purified enzymes (TLC assay), COX-1; format: biochemical; details: Table 1; assayed against purified enzymes
T1 construct: can be purified from ovine seminal vesicles by standard procedures; from tissue; host or cells: ovine seminal vesicles
T1 sequence (P05979 25-600): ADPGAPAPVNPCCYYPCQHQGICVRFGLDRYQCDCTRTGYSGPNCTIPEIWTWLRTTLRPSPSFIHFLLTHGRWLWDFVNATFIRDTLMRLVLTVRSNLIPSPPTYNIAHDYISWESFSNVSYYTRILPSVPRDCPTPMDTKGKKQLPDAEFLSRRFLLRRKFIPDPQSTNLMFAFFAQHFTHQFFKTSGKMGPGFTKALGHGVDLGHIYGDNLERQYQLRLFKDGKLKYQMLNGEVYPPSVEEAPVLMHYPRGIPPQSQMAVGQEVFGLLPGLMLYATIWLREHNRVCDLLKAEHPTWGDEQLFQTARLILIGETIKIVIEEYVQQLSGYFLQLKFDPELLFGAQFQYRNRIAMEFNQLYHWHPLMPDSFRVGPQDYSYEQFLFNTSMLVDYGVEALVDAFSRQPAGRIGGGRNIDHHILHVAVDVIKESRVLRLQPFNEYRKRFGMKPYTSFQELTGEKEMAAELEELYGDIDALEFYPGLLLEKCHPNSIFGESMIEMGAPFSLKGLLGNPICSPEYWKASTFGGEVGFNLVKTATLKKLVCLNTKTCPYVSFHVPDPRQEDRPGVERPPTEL

[1] = In vitro metabolism study (esterase hydrolysis) with 1483 HNSCC cells, RP-HPLC; format: in vitro ADME; details: human, read-out: t1/2, disappearance of the parent conjugate (converted)
Protocol: (§1) An in vitro metabolism study was performed with Compound 27i using 1483 HNSCC cells to check the enzymatic (esterase) hydrolysis of the conjugate and identify metabolites up to 24 hours (h).

1483 HNSCC cells = experiment: as above; format: in vitro ADME; details: up to 24 hours
Protocol: as §1

COX-2 [2] = target: T2, COX-2 (Homo sapiens, UniProt P35354); experiment: IC50 determinations using purified enzymes (TLC assay), COX-2; format: biochemical; parameters: made in house; host or cells: Sf9 insect cells; details: purified enzyme; read-out: COX-2 IC50
T2 sequence (P35354 18-604): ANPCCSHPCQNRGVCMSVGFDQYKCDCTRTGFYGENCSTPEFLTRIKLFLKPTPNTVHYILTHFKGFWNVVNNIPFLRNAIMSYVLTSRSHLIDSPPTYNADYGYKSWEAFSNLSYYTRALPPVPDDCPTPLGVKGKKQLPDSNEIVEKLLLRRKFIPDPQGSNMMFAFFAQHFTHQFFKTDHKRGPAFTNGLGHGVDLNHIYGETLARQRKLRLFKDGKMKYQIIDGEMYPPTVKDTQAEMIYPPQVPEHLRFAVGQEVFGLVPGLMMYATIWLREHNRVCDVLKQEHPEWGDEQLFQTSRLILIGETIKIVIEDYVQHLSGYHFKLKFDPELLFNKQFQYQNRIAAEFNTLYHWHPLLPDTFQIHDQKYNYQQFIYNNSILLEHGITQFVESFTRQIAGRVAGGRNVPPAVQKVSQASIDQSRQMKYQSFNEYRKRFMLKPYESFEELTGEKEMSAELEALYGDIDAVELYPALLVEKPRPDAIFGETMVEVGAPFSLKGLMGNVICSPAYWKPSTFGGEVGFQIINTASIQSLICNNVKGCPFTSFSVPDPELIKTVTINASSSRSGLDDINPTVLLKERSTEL

COX-1 [3] = details: literature; cited from earlier work
COX-1 [4] = target: T3, COX-1 (Ovis aries, UniProt P05979); details: literature; cited from earlier work
T3 sequence (P05979 25-600): T1 sequence (P05979 25-600)

COX-2 [5] = target: T2, COX-2; parameters: 1483 Head/Neck Squamous Cell Carcinoma Cells (Sacks et al. (1988) Cancer Res 48, 2858-2866), which express COX-2; endogenous in cells; host or cells: 1483 HNSCC cells; details: literature; cited from earlier work

IC50 (ovine COX-1): > 4000 nM
half-life [1]: 5.5 h
parent conjugate remained (1483 HNSCC cells): 25%
IC50 (COX-2 [2]): 107 nM
SMILES: COc1ccc2c(c1)c(CC(=O)NCCOC(=O)\C=C(C)/C=C/C=C(C)/C=C/C1=C(C)CCCC1(C)C)c(C)n2C(=O)c1ccc(Cl)cc1 [Compound 27i]

SMILES: COc1ccc2c(c1)c(CC(=O)O)c(C)n2C(=O)c1ccc(Cl)cc1 [Indomethacin, indomethacin]
potency as ligand of COX-1 relative to COX-2 (COX-1 [3]): approximately 15 fold

SMILES: O=C(c1ccccc1)c1ccc2n1CCC2C(=O)NCc1ccc(F)cc1 (centres unmarked) [p-fluorobenzylamide of ketorolac]
IC50 (COX-1 [4]): > 65000 nM
IC50 (COX-2 [5]): 80 nM

SMILES: COc1ccc2c(c1)c(CC(=O)Nc1ccc(F)cc1)c(C)n2C(=O)c1ccc(Cl)cc1 [p-fluorophenylamide of indomethacin, indomethacin-N-(4-fluorophenyl)amide]
IC50 (COX-1 [4]): > 66000 nM
